In PMC2903893 (Journal of the American Chemical Society, 2009):
Like-named read-outs stand apart in the source and are kept apart here.

Tests used:
PKC = details: read-out: PKC IC50, cited from earlier work
PPK = details: read-out: PPK IC50; cited from earlier work
PKA = details: read-out: PKA IC50; cited from earlier work
protein kinase C (PKC) = assay type: biochemical; details: read-out: PKC IC50; whole enzyme with regulatory and catalytic domains
[1] = cited from earlier work
JHU-012 Head&Neck = assay: Cancer cell growth inhibition with and without light, JHU-012; assay type: cell-based; details: JHU-012, with vs without light exposure
[2] = assay type: physicochemical; details: 65 °C
[3] = Absorption of the perylenequinone chromophore; assay type: physicochemical
nine cancer cell lines = assay: cells; assay type: cell-based
PKCβI = details: read-out: PKCβI IC50; ref 29 (ruboxistaurin), 30 (enzastaurin); cited from earlier work
PKCβII = details: read-out: PKCβII IC50; ref 29 (ruboxistaurin), 30 (enzastaurin); cited from earlier work

Q: With `COc1c(C[C@@H](C)OC(=O)Oc2ccc(O)cc2)c2c3c(C[C@@H](C)OC(=O)c4ccccc4)c(OC)c(=O)c4c(O)cc(OC)c(c5c(OC)cc(O)c(c1=O)c52)c43` [1c, Calphostin C, reference compound] as the molecule, how does the IC50 (PKC) read?
A: 50 to 460 nM

Q: And the IC50 (PPK)?
A: > 100000 nM

Q: And the IC50 (PKA)?
A: > 100000 nM

Q: Which results are given for `COc1c(CC(C)O)c2c3c(CC(C)O)c(OC)c(=O)c4c(O)cc5c(c6c(cc(O)c(c1=O)c62)OCO5)c43` (stereo not shown) [compound 3, Cercosporin]?
A: IC50 (protein kinase C (PKC)): 600 nM; atropisomerization t1/2 ([1]; 60 °C, DMSO): 48 h; ΔG^‡ atropisomerization ([1]; acetylacetone): 27.0[5] (acetylacetone) kcal/mol; IC50 (PKC): 600 to 1300 nM; photopotentiation (JHU-012 Head&Neck): 4.9 fold; IC50 (PPK): > 180000 nM; ΔG^‡ atropisomerization ([2]; DMSO): 28.2 kcal/mol; ΔG^‡ atropisomerization ([2]; benzene): 27.4 (benzene) kcal/mol; ΔG^‡ atropisomerization ([2]; benzene, listed as cercosporin): 27.4 kcal/mol; ε^670 [3]: 160 M⁻¹ cm⁻¹; IC50 (PKA): > 500000 nM; CC50 (nine cancer cell lines; read-out: CC50 across the series of cell lines): 120 to 270 nM

Q: For `Cn1cc(C2=C(c3cn(C4CCN(Cc5ccccn5)CC4)c4ccccc34)C(=O)NC2=O)c2ccccc21` [enzastaurin], which IC50 (PKCβI) is on record?
A: 30 nM

Q: What about the IC50 (PKCβII) of the same molecule?
A: 30 nM

Q: What does the source list for `CN(C)C[C@@H]1CCn2cc(c3ccccc32)C2=C(C(=O)NC2=O)c2cn(c3ccccc23)CCO1` [ruboxistaurin]?
A: IC50 (PKCβI): 4.7 nM; IC50 (PKCβII): […]

Q: Which IC50 (PKC; ref 22b) does the source give for `COc1c(O)c2c(=O)cc(OC)c3c4c(OC)cc(=O)c5c(O)c(OC)c(CC(C)OC(=O)c6ccccc6)c(c(c1CC(C)OC(=O)c1ccccc1)c23)c54` (stereo not shown) [1a, calphostin A] here?
A: 250 nM

Q: Which IC50 (PKC; Table 3 footnote a, ref [23]) does the source give for `COc1c(O)c2c(=O)cc(OC)c3c4c(OC)cc(=O)c5c(O)c(OC)c(CC(C)O)c(c(c1CC(C)O)c23)c54` (single isomer, unassigned; (-)) [(−)-1, Calphostin D] here?
A: 6400 nM

Q: For Hypocrellin [ent-4], which IC50 (protein kinase C (PKC)) is on record?
A: 400 nM

Q: What does the source list for `COc1c2c3c4c(c(OC)c(=O)c5c(O)cc(OC)c(c6c(OC)cc(O)c(c1=O)c63)c54)[C@@H](C(C)=O)[C@@](C)(O)C2` [compound 4, Hypocrellin A]?
A: IC50 (protein kinase C (PKC)): 4500 nM; growth inhibition, hypocrellin A (4) compared with hypocrellin (ent-4) (nine cancer cell lines): nearly identical activity
